The source made the active and inactive calls.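 The calls were made as follows: active = compounds giving half or more protection of infected cells from virus-caused growth loss, again on retest; inactive = the rest.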
Tested on: CEM cells HIV-1 protection, formazan growth assay
Assay: NCI AIDS Antiviral Assay
Details: for IC50: measured here: growth of uninfected CEM cells
How it was run: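 Category rules: moderately active means at least 50% protection on retest, and confirmed active means 100% protection reproducibly. The underlying data came from a formazan growth assay in HIV-1-infected CEM cells.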

In the case of `COC1/C=C/OC2(C)Oc3c(C)c(O)c4c(O)c(c(/C=N/N5CC(C)(C)N(Cc6ccccc6)CC5(C)C)c(O)c4c3C2=O)NC(=O)C(C)=C/C=C/C(C)C(O)C(C)C(O)C(C)C(OC(C)=O)C1C` (configuration not stated), the EC50 is reported as > 27.5 µM and the IC50 is reported as 3.31 µM.
`COc1cc2c(cc1OC)C13CCC(O)CC1=CC2(C)O3` (configuration not stated) was tested, and the EC50 was > 646 µM and the IC50 was > 646 µM.
In the case of `Clc1ccc(NC2=NCCN=C(Nc3ccc(Cl)cc3)SS2)cc1`, the EC50 is reported as > 200 µM and the IC50 is reported as 22.9 µM.
With `Cc1cc(N=Nc2c(O)c3ccccc3[nH]c2=O)ccc1N=Nc1ccc(C(=O)N(C)C)cc1` the EC50 was > 200 µM and the IC50 was 151 µM.
In the case of `CCCC(O)c1ccc2[nH]c3c(C)cc([N+](=O)[O-])c(C)c3c2c1` (configuration not stated), the EC50 is reported as > 4.68 µM and the IC50 is reported as > 4.68 µM.
For `CCn1cc(C(=O)O)c(=O)c2cc(F)c(-n3cccc3)cc21`, the outcome was “inactive”.
In the case of `Cc1ccc(SC/C(=C\CS(=O)(=O)c2ccc(C)cc2)S(=O)(=O)c2ccc(Br)cc2)cc1`, the outcome is reported as “inactive”.
For `COc1cccc(C2c3cc4c(cc3OC(N3CCCC3)C2c2ccccc2)OCO4)c1O` (configuration not stated), the EC50 was > 200 µM and the IC50 was 3.16 µM.
For `COc1cc(OC)nc(-n2c(N)c(C(=O)O)c3ccc([N+](=O)[O-])cc3c2=O)n1`, the EC50 was > 200 µM and the IC50 was 42.7 µM.
In the case of `C=CCN1CCC(O)(c2cc(C(=O)OCC)[nH]c2-c2cc(C)no2)C1` (configuration not stated), the EC50 is reported as > 200 µM and the IC50 is reported as > 200 µM.
With `CC(C)(C)C1CCC2c3c([nH]c4ccccc34)C3C(=O)N(c4cccc(Cl)c4)C(=O)C3C2C1` (configuration not stated) the EC50 was > 200 µM and the IC50 was 11 µM.
`CC(=O)OCCOCN1C(=O)NC(=O)/C(=C/c2cccc(OCc3ccccc3)c2)C1=O` was tested, and the EC50 was > 200 µM and the IC50 was 18.2 µM.
With `O=S(=O)(F)c1cc(C[P+](c2ccccc2)(c2ccccc2)c2ccccc2)ccc1Cl` the EC50 was > 200 µM and the IC50 was 91.2 µM.
`CCOC(=O)c1cnc2sc3ccc4ccccc4c3n2c1=O` was tested, and the EC50 was > 27.5 µM and the IC50 was > 27.5 µM.
For `C/C1=C/C(=O)O[C@@H]2C[C@@H](CC[C@H](C)/C=C\C=C\CC1)O[C@@](O)([C@@H]1CSC(=O)N1)C2`, the EC50 was > 2 µM and the IC50 was 0.363 µM.
With `O=c1/c(=C/c2ccccn2)sc2nc3cc4c(cc3n12)OCCO4` the EC50 was > 200 µM and the IC50 was > 200 µM.
In the case of `O=S(=O)(F)c1ccc(C[P+](c2ccccc2)(c2ccccc2)c2ccccc2)cc1Cl`, the EC50 is reported as > 200 µM and the IC50 is reported as 97.7 µM.
With `CC(=O)OCC(C)(COC(C)=O)N1C(=O)C2C3c4ccccc4C(c4ccccc43)C2C1=O` (configuration not stated) the EC50 was > 200 µM and the IC50 was > 200 µM.
With `CN(C)C(=O)Oc1c(-c2ccccc2)c(=O)n2c3ccccc3n3c(=O)n(C)c(=O)c1c23` the EC50 was > 1.26 µM and the IC50 was > 1.26 µM.
`CCCCCCCCCCCC(=O)OC(COC(N)=O)COc1ccc(Cl)cc1` (configuration not stated) was tested, and the EC50 was > 12.3 µM and the IC50 was > 12.3 µM.
With `C/C(CC(=O)Nc1ccc(NC(=O)C/C(C)=N\NC(N)=O)cc1)=N/NC(N)=O` the EC50 was > 240 µM and the IC50 was > 240 µM.
For `COC1/C=C/OC2(C)Oc3c(C)c(O)c4c(O)c(c(C=NN5CCCCCCCCCC5)c(O)c4c3C2=O)NC(=O)/C(C)=C/C=C/C(C)C(O)C(C)C(O)C(C)C(OC(C)=O)C1C` (configuration not stated), the EC50 was > 200 µM and the IC50 was 6.17 µM.
`O=C1/C(=C\c2cccc(Oc3ccccc3)c2)S(=O)(=O)C(c2ccccc2)N1Cc1ccccc1` (configuration not stated) was tested, and the EC50 was > 20 µM and the IC50 was > 20 µM.
In the case of `COC(=O)[C@@H]1C=C[C@H](OC2OC(COC(C)=O)C(OC(C)=O)C(OC(C)=O)C2OC(C)=O)n2c(=O)n(-c3ccccc3)c(=O)n21` (some centres not stated), the EC50 is reported as > 200 µM and the IC50 is reported as 1.07 µM.
For `CCOc1cc2ccc3c4cc(OC)c(OC)cc4cnc3c2cc1OCC`, the EC50 was > 36.3 µM and the IC50 was > 36.3 µM.
In the case of `Cc1cc(NS(=O)(=O)c2ccc(Nc3c4ccccc4nc4c(C(=O)NCC#N)cccc34)cc2)no1`, the EC50 is reported as > 200 µM and the IC50 is reported as 10.7 µM.
In the case of `NC1=NCC(c2ccccn2)C1c1ccc(F)cc1` (configuration not stated), the outcome is reported as “inactive”.
In the case of `CCCCOP(=O)(OCCCC)c1ccccc1`, the EC50 is reported as 0.0631 µM and the IC50 is reported as > 200 µM.
`O=C(CC(=O)c1ccccc1)CC(=O)c1ccccc1` was tested, and the EC50 was > 19.5 µM and the IC50 was > 19.5 µM.
For `CC(C)CCCCCCCCCCCCC(=O)NCC(=O)NC1C(C)OC(Nc2ncnc3c2ncn3C)C(O)C1O` (configuration not stated), the outcome was “inactive”.
With `COC(=O)[C@@H]1CCCN1C(=O)C1Cc2c([nH]c3ccccc23)[C@@H](C=C(C)C)N1C(=O)OC(C)(C)C(Cl)(Cl)Cl` (some centres not stated) the outcome was “inactive”.
For `Cc1ccc(S(=O)(=O)Nn2c(-c3ccccc3)c(C#N)c(-c3ccc(N(C)C)cc3)c(C#N)c2=O)cc1`, the EC50 was > 100 µM and the IC50 was 35.5 µM.
With `CC(OCc1ccccc1)C1OC2(C)CCC(=O)C1O2` (configuration not stated) the outcome was “inactive”.
In the case of `CCc1c(O)c(O)c(C(C)=O)c2c(O)c(-c3c(C)cc4c(CC)c(O)c(O)c(C(C)=O)c4c3O)c(C)cc12`, the EC50 is reported as > 69.2 µM and the IC50 is reported as 2.24 µM.
`COCCOCCOCCC(=O)NC1CC2CCC1(C)C2(C)C` (configuration not stated) was tested, and the EC50 was > 200 µM and the IC50 was > 200 µM.
`CCC(=O)OC1CCn2c1nc1c2C(=O)C(C)=C(NC(C)=O)C1=O` (configuration not stated) was tested, and the EC50 was > 200 µM and the IC50 was 1.23 µM.
With `Nc1ncnc2nc(C3OC(CO)C(O)C3O)[nH]c12` (configuration not stated) the EC50 was > 70.8 µM and the IC50 was > 70.8 µM.
For `COC(=O)C(C(=O)C(=O)Nc1ccccc1OC)c1csc(-n2nc(-c3ccccc3)cc2-c2ccccc2)n1` (configuration not stated), the EC50 was > 115 µM and the IC50 was 97.7 µM.
`COc1ccc(C(O)c2ccc3c(c2)OCO3)cc1` (configuration not stated) was tested, and the EC50 was > 200 µM and the IC50 was 162 µM.

From PubChem BioAssay AID179 (DTP/NCI, 2004)
